Measured values reported in patent US20210317134A1, “UBIQUITIN-SPECIFIC-PROCESSING PROTEASE 7 (USP7) MODULATORS AND USES THEREOF” (RAPT THERAPEUTICS, INC., priority 2019, published 2021).

biological target: USP7 (Homo sapiens, UniProt Q93009); assay: USP7 inhibitory potency (Table 1); type: biochemical
Sequence (Q93009 whole entry): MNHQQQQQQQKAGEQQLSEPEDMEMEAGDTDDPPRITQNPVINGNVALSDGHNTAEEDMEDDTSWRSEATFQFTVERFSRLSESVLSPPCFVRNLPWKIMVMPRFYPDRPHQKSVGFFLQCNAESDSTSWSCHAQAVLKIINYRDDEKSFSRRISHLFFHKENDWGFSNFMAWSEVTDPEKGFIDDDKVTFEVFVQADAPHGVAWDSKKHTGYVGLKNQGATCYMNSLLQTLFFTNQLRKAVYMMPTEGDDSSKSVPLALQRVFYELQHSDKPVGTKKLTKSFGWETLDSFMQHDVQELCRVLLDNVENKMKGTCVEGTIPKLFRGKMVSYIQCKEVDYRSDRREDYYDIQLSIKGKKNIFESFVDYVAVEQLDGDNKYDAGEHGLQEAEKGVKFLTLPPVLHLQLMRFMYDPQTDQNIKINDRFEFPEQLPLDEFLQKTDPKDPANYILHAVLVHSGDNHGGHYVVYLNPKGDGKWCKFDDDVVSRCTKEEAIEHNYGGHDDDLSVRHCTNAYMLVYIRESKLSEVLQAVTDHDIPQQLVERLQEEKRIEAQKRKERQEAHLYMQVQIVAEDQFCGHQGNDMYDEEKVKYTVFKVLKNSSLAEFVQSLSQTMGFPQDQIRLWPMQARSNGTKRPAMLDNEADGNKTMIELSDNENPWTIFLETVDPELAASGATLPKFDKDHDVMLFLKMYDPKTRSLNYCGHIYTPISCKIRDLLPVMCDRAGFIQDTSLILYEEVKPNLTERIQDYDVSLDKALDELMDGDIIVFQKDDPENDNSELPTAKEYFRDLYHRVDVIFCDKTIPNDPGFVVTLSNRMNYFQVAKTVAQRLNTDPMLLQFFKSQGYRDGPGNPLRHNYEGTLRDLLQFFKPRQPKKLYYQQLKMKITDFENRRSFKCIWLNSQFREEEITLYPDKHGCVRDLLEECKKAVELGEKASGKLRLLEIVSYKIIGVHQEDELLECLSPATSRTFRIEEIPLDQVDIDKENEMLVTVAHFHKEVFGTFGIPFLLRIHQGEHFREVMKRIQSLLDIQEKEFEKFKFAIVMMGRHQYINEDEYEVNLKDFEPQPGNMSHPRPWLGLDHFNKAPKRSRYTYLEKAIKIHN

Row | SMILES | IC50
1 | CNC(=O)c1cc2c(-c3cc(Cl)cc4c3OC(C(=O)N3CCNCC3)C4)ccnc2[nH]1 (centres unmarked) [4-(5-Chloro-2-(piperazine-1-carbonyl)-2,3-dihydrobenzofuran-7-yl)-N-methyl-1H-pyrrolo[2,3-b]pyridine-2-carboxamide] | 10 to 30 µM
2 | NC(=O)c1c[nH]c2nccc(-c3cc(Cl)cc4c3OC(C(=O)N3CCNCC3)C4)c12 (centres unmarked) [4-(5-chloro-2-(piperazine-1-carbonyl)-2,3-dihydrobenzofuran-7-yl)-1H-pyrrolo[2,3-b]pyridine-3-carboxamide] | 1 to 10 µM
3 | O=C(Nc1ccc(F)cc1)c1cc2c(-c3cc(Cl)cc4c3OC(C(=O)N3CCNCC3)C4)ccnc2[nH]1 (centres unmarked) [4-(5-chloro-2-(piperazine-1-carbonyl)-2,3-dihydrobenzofuran-7-yl)-N-(4-fluorophenyl)-1H-pyrrolo[2,3-b]pyridine-2-carboxamide] | 1 to 10 µM
4 | CNC(=O)c1ccc2c(-c3cc(Cl)cc4c3OC(C(=O)N3CCNCC3)C4)ccnc2c1 (centres unmarked) [4-(5-chloro-2-(piperazine-1-carbonyl)-2,3-dihydrobenzofuran-7-yl)-N-methylquinoline-7-carboxamide] | 1 to 10 µM
5 | N#Cc1ccc2nccc(-c3cc(Cl)cc4c3OC(C(=O)N3CCNCC3)C4)c2c1 (centres unmarked) [4-(5-chloro-2-(piperazine-1-carbonyl)-2,3-dihydrobenzofuran-7-yl)quinoline-6-carbonitrile] | 10 to 30 µM
6 | N#Cc1ccc2c(-c3cc(Cl)cc4c3OC(C(=O)N3CCNCC3)C4)ccnc2c1 (centres unmarked) [4-(5-chloro-2-(piperazine-1-carbonyl)-2,3-dihydrobenzofuran-7-yl)quinoline-7-carbonitrile] | < 1 µM
7 | NC(=O)C1Cc2nccc(-c3cc(Cl)cc4c3O[C@@H](c3onc5c3CNCC5)C4)c2C1 (stereo partly drawn) [4-((R)-5-chloro-2-(4,5,6,7-tetrahydroisoxazolo[4,3-c]pyridin-3-yl)-2,3-dihydrobenzofuran-7-yl)-6,7-dihydro-5H-cyclopenta[b]pyridine-6-carboxamide] | 1 to 10 µM
8 | CN(C)C(=O)C1Cc2nccc(-c3cc(Cl)cc4c3O[C@@H](c3onc5c3CNCC5)C4)c2C1 (stereo partly drawn) [4-((R)-5-chloro-2-(4,5,6,7-tetrahydroisoxazolo[4,3-c]pyridin-3-yl)-2,3-dihydrobenzofuran-7-yl)-N,N-dimethyl-6,7-dihydro-5H-cyclopenta[b]pyridine-6-carboxamide] | 1 to 10 µM
9 | CNC(=O)C1Cc2nccc(-c3cc(Cl)cc4c3O[C@@H](c3onc5c3CNCC5)C4)c2C1 (stereo partly drawn) [4-((R)-5-chloro-2-(4,5,6,7-tetrahydroisoxazolo[4,3-c]pyridin-3-yl)-2,3-dihydrobenzofuran-7-yl)-N-methyl-6,7-dihydro-5H-cyclopenta[b]pyridine-6-carboxamide] | 1 to 10 µM
10 | O=C1CCC(c2cc3nccc(-c4cc(Cl)cc5c4O[C@@H](c4onc6c4CNCC6)C5)c3s2)N1 (stereo partly drawn) [5-(7-((R)-5-chloro-2-(4,5,6,7-tetrahydroisoxazolo[4,3-c]pyridin-3-yl)-2,3-dihydrobenzofuran-7-yl)thieno[3,2-b]pyridin-2-yl)pyrrolidin-2-one] | 1 to 10 µM
11 | O=C1NC(=O)C(c2cc3nccc(-c4cc(Cl)cc5c4O[C@@H](C(=O)N4CCNCC4)C5)c3s2)N1 (stereo partly drawn) [5-(7-((R)-5-chloro-2-(piperazine-1-carbonyl)-2,3-dihydrobenzofuran-7-yl)thieno[3,2-b]pyridin-2-yl)imidazolidine-2,4-dione] | < 1 µM
12 | O=C(N[C@@H]1CCCNC1)C1Cc2cc(Cl)cc(-c3ccnc4[nH]ccc34)c2O1 (stereo partly drawn) [5-Chloro-N-((R)-piperidin-3-yl)-7-(1H-pyrrolo[2,3-b]pyridin-4-yl)-2,3-dihydrobenzofuran-2-carboxamide] | 1 to 10 µM
13 | C[C@@H]1C[C@H](NC(=O)C2Cc3cc(Cl)cc(-c4ccnc5[nH]ccc45)c3O2)CCN1 (stereo partly drawn) [5-chloro-N-((2R,4R)-2-methylpiperidin-4-yl)-7-(1H-pyrrolo[2,3-b]pyridin-4-yl)-2,3-dihydrobenzofuran-2-carboxamide] | 1 to 10 µM
14 | C[C@H]1C[C@H](NC(=O)C2Cc3cc(Cl)cc(-c4ccnc5[nH]ccc45)c3O2)CCN1 (stereo partly drawn) [5-chloro-N-((2S,4R)-2-methylpiperidin-4-yl)-7-(1H-pyrrolo[2,3-b]pyridin-4-yl)-2,3-dihydrobenzofuran-2-carboxamide] | 1 to 10 µM
15 | NC(=O)c1cc2nccc(-c3cc(Cl)cc4c3OC(C(=O)N3CCNCC3)C4)c2s1 (centres unmarked) [7-(5-chloro-2-(piperazine-1-carbonyl)-2,3-dihydrobenzofuran-7-yl)thieno[3,2-b]pyridine-2-carboxamide] | 1 to 10 µM
16 | O=C1c2ccccc2C2(c3cc4ncnc(-c5cc(Cl)cc6c5O[C@@H](c5onc7c5CNCC7)C6)c4s3)OCCN12 (stereo partly drawn) [9b-(4-((R)-5-chloro-2-(4,5,6,7-tetrahydroisoxazolo[4,3-c]pyridin-3-yl)-2,3-dihydrobenzofuran-7-yl)thieno[3,2-d]pyrimidin-6-yl)-2,3-dihydrooxazolo[2,3-a]isoindol-5(9bH)-one] | 10 to 30 µM
17 | C=CCC1(C(=O)N2CCNCC2)Cc2cc(Cl)cc(-c3ccnc4[nH]ccc34)c2O1 (centres unmarked) [(2-allyl-5-chloro-7-(1H-pyrrolo[2,3-b]pyridin-4-yl)-2,3-dihydrobenzofuran-2-yl)(piperazin-1-yl)methanone] | 10 to 30 µM
18 | O=C(C1Cc2cc(Cl)cc(-c3ccnc4[nH]ccc34)c2O1)N1CCCC(C2CNC2)C1 (centres unmarked) [(3-(azetidin-3-yl)piperidin-1-yl)(5-chloro-7-(1H-pyrrolo[2,3-b]pyridin-4-yl)-2,3-dihydrobenzofuran-2-yl)methanone] | 10 to 30 µM

Row | SMILES | IC50
19 | O=C(C1Cc2cc(Cl)cc(-c3ccnc4[nH]ccc34)c2O1)N1CCC(c2cnc[nH]2)CC1 (centres unmarked) [(4-(1H-imidazol-5-yl)piperidin-1-yl)(5-chloro-7-(1H-pyrrolo[2,3-b]pyridin-4-yl)-2,3-dihydrobenzofuran-2-yl)methanone] | 1 to 10 µM
20 | CCC(O)c1cc2nccc(-c3cc(Cl)cc4c3O[C@@H](C(=O)N3CCC(c5cnc[nH]5)CC3)C4)c2s1 (stereo partly drawn) [(4-(1H-imidazol-5-yl)piperidin-1-yl)((2R)-5-chloro-7-(2-(1-hydroxypropyl)thieno[3,2-b]pyridin-7-yl)-2,3-dihydrobenzofuran-2-yl)methanone] | 1 to 10 µM
21 | O=C(C1Cc2cc(Cl)cc(-c3ccnc4[nH]ccc34)c2O1)N1CCC(O)(c2ccc(F)cc2Cl)CC1 (centres unmarked) [(4-(2-chloro-4-fluorophenyl)-4-hydroxypiperidin-1-yl)(5-chloro-7-(1H-pyrrolo[2,3-b]pyridin-4-yl)-2,3-dihydrobenzofuran-2-yl)methanone] | 1 to 10 µM
22 | O=C(C1Cc2cc(Cl)cc(-c3ccnc4[nH]ccc34)c2O1)N1CCC(O)(Cc2ccccc2)CC1 (centres unmarked) [(4-benzyl-4-hydroxypiperidin-1-yl)(5-chloro-7-(1H-pyrrolo[2,3-b]pyridin-4-yl)-2,3-dihydrobenzofuran-2-yl)methanone] | 1 to 10 µM
23 | O=C(C1Cc2cc(Cl)c(Cl)c(-c3ccnc4[nH]ccc34)c2O1)N1CCNCC1 (centres unmarked) [(5,6-dichloro-7-(1H-pyrrolo[2,3-b]pyridin-4-yl)-2,3-dihydrobenzofuran-2-yl)(piperazin-1-yl)methanone] | 1 to 10 µM
24 | O=C(C1Cc2cc(Cl)cc(-c3ccnc4[nH]ccc34)c2O1)N1CCN(c2ccccn2)CC1 (centres unmarked) [(5-Chloro-7-(1H-pyrrolo[2,3-b]pyridin-4-yl)-2,3-dihydrobenzofuran-2-yl)(4-(pyridin-2-yl)piperazin-1-yl)methanone] | 10 to 30 µM
25 | Cc1cc(-c2cc(Cl)cc3c2OC(C(=O)N2CCNCC2)C3)ccn1 (centres unmarked) [(5-Chloro-7-(2-methylpyridin-4-yl)-2,3-dihydrobenzofuran-2-yl)(piperazin-1-yl)methanone] | 10 to 30 µM
26 | CC1(C(=O)N2CCNCC2)Cc2cc(Cl)cc(-c3ccnc4[nH]ccc34)c2O1 (centres unmarked) [(5-chloro-2-methyl-7-(1H-pyrrolo[2,3-b]pyridin-4-yl)-2,3-dihydrobenzofuran-2-yl)(piperazin-1-yl)methanone] | 1 to 10 µM
27 | O=C(C1Cc2cc(Cl)cc(-c3ccnc4cccnc34)c2O1)N1CCNCC1 (centres unmarked) [(5-chloro-7-(1,5-naphthyridin-4-yl)-2,3-dihydrobenzofuran-2-yl)(piperazin-1-yl)methanone] | 10 to 30 µM
28 | O=C(C1Cc2cc(Cl)cc(-c3ccnc4ccncc34)c2O1)N1CCNCC1 (centres unmarked) [(5-chloro-7-(1,6-naphthyridin-4-yl)-2,3-dihydrobenzofuran-2-yl)(piperazin-1-yl)methanone] | 10 to 30 µM
29 | O=C(C1Cc2cc(Cl)cc(-c3ccnc4[nH]ccc34)c2O1)N1CCC2(CC1)CNC2 (centres unmarked) [(5-chloro-7-(1H-pyrrolo[2,3-b]pyridin-4-yl)-2,3-dihydrobenzofuran-2-yl)(2,7-diazaspiro[3.5]nonan-7-yl)methanone] | 1 to 10 µM
30 | CN1CCC(N2CCN(C(=O)C3Cc4cc(Cl)cc(-c5ccnc6[nH]ccc56)c4O3)CC2)CC1 (centres unmarked) [(5-chloro-7-(1H-pyrrolo[2,3-b]pyridin-4-yl)-2,3-dihydrobenzofuran-2-yl)(4-(1-methylpiperidin-4-yl)piperazin-1-yl)methanone] | 10 to 30 µM
31 | O=C(C1Cc2cc(Cl)cc(-c3ccnc4[nH]ccc34)c2O1)N1CCC(O)(c2ccccc2F)CC1 (centres unmarked) [(5-chloro-7-(1H-pyrrolo[2,3-b]pyridin-4-yl)-2,3-dihydrobenzofuran-2-yl)(4-(2-fluorophenyl)-4-hydroxypiperidin-1-yl)methanone] | 1 to 10 µM
32 | O=C(C1Cc2cc(Cl)cc(-c3ccnc4[nH]ccc34)c2O1)N1CCC(c2ccccc2O)CC1 (centres unmarked) [(5-chloro-7-(1H-pyrrolo[2,3-b]pyridin-4-yl)-2,3-dihydrobenzofuran-2-yl)(4-(2-hydroxyphenyl)piperidin-1-yl)methanone] | 1 to 10 µM
33 | O=C(C1Cc2cc(Cl)cc(-c3ccnc4[nH]ccc34)c2O1)N1CCC(O)(c2ccc(Cl)cc2)CC1 (centres unmarked) [(5-chloro-7-(1H-pyrrolo[2,3-b]pyridin-4-yl)-2,3-dihydrobenzofuran-2-yl)(4-(4-chlorophenyl)-4-hydroxypiperidin-1-yl)methanone] | 1 to 10 µM
34 | O=C(C1Cc2cc(Cl)cc(-c3ccnc4[nH]ccc34)c2O1)N1CCC(c2ccc(O)cc2)CC1 (centres unmarked) [(5-chloro-7-(1H-pyrrolo[2,3-b]pyridin-4-yl)-2,3-dihydrobenzofuran-2-yl)(4-(4-hydroxyphenyl)piperidin-1-yl)methanone] | 10 to 30 µM
35 | CN1CCC(CN2CCN(C(=O)C3Cc4cc(Cl)cc(-c5ccnc6[nH]ccc56)c4O3)CC2)CC1 (centres unmarked) [(5-chloro-7-(1H-pyrrolo[2,3-b]pyridin-4-yl)-2,3-dihydrobenzofuran-2-yl)(4-((1-methylpiperidin-4-yl)methyl)piperazin-1-yl)methanone] | 1 to 10 µM
